Measured values as given in patent US8735414B2 (priority 2009, dated 2014).

Key:
[1] = system: bicistronic HCV replicon (replicon RNA, GenBank Accession No. AJ242654); experiment: HCV Replicon Assay; format: cell-based; conditions: Hepatitis C virus, 72 h, read-out: Replicon IC50

| SMILES | melting point | IC50 [1] |
| --- | --- | --- |
| N#Cc1c(-c2ccc(S(=O)(=O)NC(CF)CF)cn2)n(-c2ccccc2)c2cc(C3CC3)ccc12 [compound 95, 6-(3-cyano-6-cyclopropyl-1-phenyl-1H-indol-2-yl)-N-(1,3-difluoropropan-2-yl)pyridine-3-sulfonamide] | 171 to 175 °C | < 500 nM |
| N#Cc1c(-c2ccc(S(=O)(=O)NC(CF)CF)cn2)n(-c2ccccn2)c2ccc(F)cc12 [compound 96, 6-[3-cyano-5-fluoro-1-(pyridin-2-yl)-1H-indol-2-yl]-N-(1,3-difluoropropan-2-yl)pyridine-3-sulfonamide] | 170 to 172 °C | < 500 nM |
| CC(C)NS(=O)(=O)c1cnc(-c2c(C#N)c3cc(Cl)ccc3n2C2CCCCC2)nc1 [compound 97, 2-(5-chloro-3-cyano-1-cyclohexyl-1H-indol-2-yl)-N-(propan-2-yl)pyrimidine-5-sulfonamide] | 210 to 215 °C | 500 to 2000 nM |
| Cc1ccc2c(C#N)c(-c3ncc(S(=O)(=O)NC(C)C)cn3)n(C3CCCCC3)c2c1 [compound 98, 2-(3-cyano-1-cyclohexyl-6-methyl-1H-indol-2-yl)-N-(propan-2-yl)pyrimidine-5-sulfonamide] | 196 to 201 °C | < 500 nM |
| N#Cc1c(-c2ccc(S(=O)(=O)NC(CF)CF)cn2)n(C2CCCCC2)c2cc(OC(F)F)ccc12 [compound 100, 6-[3-cyano-1-cyclohexyl-6-(difluoromethoxy)-1H-indol-2-yl]-N-(1,3-difluoropropan-2-yl)pyridine-3-sulfonamide] | 175 to 178 °C | < 500 nM |
| COc1cc2c(cc1F)c(C#N)c(-c1ccc(S(=O)(=O)NC(C)C)cn1)n2C1CCC1 [compound 101, 6-(3-cyano-1-cyclobutyl-5-fluoro-6-methoxy-1H-indol-2-yl)-N-(propan-2-yl)pyridine-3-sulfonamide] | 234 to 237 °C | < 500 nM |
| COc1cc2c(cc1F)c(C#N)c(-c1ccc(S(=O)(=O)NC(CF)CF)cn1)n2C1CCC1 [compound 102, 6-(3-cyano-1-cyclobutyl-5-fluoro-6-methoxy-1H-indol-2-yl)-N-(1,3-difluoropropan-2-yl)pyridine-3-sulfonamide] | 217 to 219 °C | < 500 nM |
| N#Cc1c(-c2ccc(S(=O)(=O)NC(CF)CF)cn2)n(C2CCCCC2)c2ccc(F)cc12 [compound 104, 6-(3-cyano-1-cyclohexyl-5-fluoro-1H-indol-2-yl)-N-(1,3-difluoropropan-2-yl)pyridine-3-sulfonamide] | 138 to 141 °C | < 500 nM |
| N#Cc1c(-c2ccc(S(=O)(=O)NC(CF)CF)cn2)n(C2CCCCC2)c2cc(OC(F)(F)F)ccc12 [compound 105, 6-[3-cyano-1-cyclohexyl-6-(trifluoromethoxy)-1H-indol-2-yl]-N-(1,3-difluoropropan-2-yl)pyridine-3-sulfonamide] | 146 to 148 °C | < 500 nM |
| N#Cc1c(-c2ccc(S(=O)(=O)NC(CF)CF)cn2)n(C2CCC2)c2cc(C3CC3)c(F)cc12 [compound 107, 6-(3-cyano-1-cyclobutyl-6-cyclopropyl-5-fluoro-1H-indol-2-yl)-N-(1,3-difluoropropan-2-yl)pyridine-3-sulfonamide] | 182 to 186 °C | < 500 nM |
| Cc1cc2c(cc1F)c(C#N)c(-c1ccc(S(=O)(=O)NC(CF)CF)cn1)n2C1CCC1 [compound 108, 6-(3-cyano-1-cyclobutyl-5-fluoro-6-methyl-1H-indol-2-yl)-N-(1,3-difluoropropan-2-yl)pyridine-3-sulfonamide] | 186 to 188 °C | < 500 nM |
| N#Cc1c(-c2ccc(S(=O)(=O)NC(CF)CF)cn2)n(CC2CC2)c2cc(Cl)c(F)cc12 [compound 110, 6-[6-chloro-3-cyano-1-(cyclopropylmethyl)-5-fluoro-1H-indol-2-yl]-N-(1,3-difluoropropan-2-yl)pyridine-3-sulfonamide] | 202 to 204 °C | < 500 nM |
| Cc1ccc2c(C#N)c(-c3ccc(S(=O)(=O)NC(CF)CF)cn3)n(-c3ccccc3)c2c1 [compound 111, 6-(3-cyano-6-methyl-1-phenyl-1H-indol-2-yl)-N-(1,3-difluoropropan-2-yl)pyridine-3-sulfonamide] | 181 to 185 °C | < 500 nM |
| N#Cc1c(-c2ccc(S(=O)(=O)NC(CF)CF)cn2)n(-c2ccccc2)c2ccc(Cl)cc12 [compound 112, 6-(5-chloro-3-cyano-1-phenyl-1H-indol-2-yl)-N-(1,3-difluoropropan-2-yl)pyridine-3-sulfonamide] | 192 to 196 °C | < 500 nM |
| N#Cc1c(-c2ccc(S(=O)(=O)NC(CF)CF)cn2)n(-c2ccccc2)c2ccc(F)cc12 [compound 113, 6-(3-cyano-5-fluoro-1-phenyl-1H-indol-2-yl)-N-(1,3-difluoropropan-2-yl)pyridine-3-sulfonamide] | 165 to 168 °C | < 500 nM |
| CC(C)NS(=O)(=O)c1cnc(-c2c(C#N)c3cc(Cl)ccc3n2C2CCC2)nc1 [compound 114, 2-(5-chloro-3-cyano-1-cyclobutyl-1H-indol-2-yl)-N-(propan-2-yl)pyrimidine-5-sulfonamide] | > 198 °C (dec.) | < 500 nM |

| SMILES | melting point | IC50 [1] |
| --- | --- | --- |
| CC(C)NS(=O)(=O)c1cnc(-c2c(C#N)c3ccc(Cl)cc3n2C2CCC2)nc1 [compound 115, 2-(6-chloro-3-cyano-1-cyclobutyl-1H-indol-2-yl)-N-(propan-2-yl)pyrimidine-5-sulfonamide] | 228 to 229 °C | < 500 nM |
| CC(C)NS(=O)(=O)c1cnc(-c2c(C#N)c3ccc(OC(F)(F)F)cc3n2C2CCC2)nc1 [compound 116, 2-[3-cyano-1-cyclobutyl-6-(trifluoromethoxy)-1H-indol-2-yl]-N-(propan-2-yl)pyrimidine-5-sulfonamide] | 200 to 203 °C | < 500 nM |
| CC(C)NS(=O)(=O)c1cnc(-c2c(C#N)c3ccc(OC(F)(F)F)cc3n2C2CCCC2)nc1 [compound 117, 2-[3-cyano-1-cyclopentyl-6-(trifluoromethoxy)-1H-indol-2-yl]-N-(propan-2-yl)pyrimidine-5-sulfonamide] | 216 to 218 °C | 500 to 2000 nM |
| C[C@H](NS(=O)(=O)c1ccc(-c2c(C#N)c3cc(Cl)ccc3n2C2CCC2)nc1)C1CC1 [compound 119, 6-(5-chloro-3-cyano-1-cyclobutyl-1H-indol-2-yl)-N-[(1S)-1-cyclopropylethyl]pyridine-3-sulfonamide] | 154 to 155 °C | < 500 nM |
| CC(C)NS(=O)(=O)c1cnc(-c2c(C#N)c3cc(Cl)ccc3n2C(C)C)nc1 [compound 120, 2-[5-chloro-3-cyano-1-(propan-2-yl)-1H-indol-2-yl]-N-(propan-2-yl)pyrimidine-5-sulfonamide] | 202 to 220 °C | < 500 nM |
| Cc1ccc2c(c1)c(C#N)c(-c1ncc(S(=O)(=O)NC(C)C)cn1)n2C1CCC1 [compound 121, 2-(3-cyano-1-cyclobutyl-5-methyl-1H-indol-2-yl)-N-(propan-2-yl)pyrimidine-5-sulfonamide] | 134 to 138 °C | < 500 nM |
| Cc1ccc2c(c1)c(C#N)c(-c1ncc(S(=O)(=O)NC(CF)CF)cn1)n2C1CCC1 [compound 122, 2-(3-cyano-1-cyclobutyl-5-methyl-1H-indol-2-yl)-N-(1,3-difluoropropan-2-yl)pyrimidine-5-sulfonamide] | 140 to 145 °C | < 500 nM |
| CC(C)NS(=O)(=O)c1cnc(-c2c(C#N)c3cc(F)ccc3n2C(C)C)nc1 [compound 123, 2-[3-cyano-5-fluoro-1-(propan-2-yl)-1H-indol-2-yl]-N-(propan-2-yl)pyrimidine-5-sulfonamide] | 192 to 197 °C | < 500 nM |
| CC(C)NS(=O)(=O)c1cnc(-c2c(C#N)c3ccc(C4CC4)cc3n2CC2CC2)nc1 [compound 124, 2-[3-cyano-6-cyclopropyl-1-(cyclopropylmethyl)-1H-indol-2-yl]-N-(propan-2-yl)pyrimidine-5-sulfonamide] | 169 to 174 °C | < 500 nM |
| CC(C)NS(=O)(=O)c1cnc(-c2c(C#N)c3ccc(C4CC4)cc3n2C2CCCC2)nc1 [compound 125, 2-(3-cyano-1-cyclopentyl-6-cyclopropyl-1H-indol-2-yl)-N-(propan-2-yl)pyrimidine-5-sulfonamide] | 211 to 212 °C | < 500 nM |
| N#Cc1c(-c2ncc(S(=O)(=O)NC(CF)CF)cn2)n(C2CCC2)c2cc(C3CC3)ccc12 [compound 126, 2-(3-cyano-1-cyclobutyl-6-cyclopropyl-1H-indol-2-yl)-N-(1,3-difluoropropan-2-yl)pyrimidine-5-sulfonamide] | 165 to 168 °C | < 500 nM |
| CC(C)NS(=O)(=O)c1cnc(-c2c(C#N)c3ccc(OC(F)F)cc3n2C2CCC2)nc1 [compound 127, 2-[3-cyano-1-cyclobutyl-6-(difluoromethoxy)-1H-indol-2-yl]-N-(propan-2-yl)pyrimidine-5-sulfonamide] | 192 to 194 °C | < 500 nM |
| CC(NS(=O)(=O)c1cnc(-c2c(C#N)c3ccc(OC(F)F)cc3n2C2CCC2)nc1)C(F)(F)F (centres unmarked) [compound 128, 2-[3-cyano-1-cyclobutyl-6-(difluoromethoxy)-1H-indol-2-yl]-N-(1,1,1-trifluoropropan-2-yl)pyrimidine-5-sulfonamide] | 227 to 229 °C | < 500 nM |
| N#Cc1c(-c2ncc(S(=O)(=O)NC(CF)CF)cn2)n(C2CCC2)c2cc(OC(F)F)ccc12 [compound 129, 2-[3-cyano-1-cyclobutyl-6-(difluoromethoxy)-1H-indol-2-yl]-N-(1,3-difluoropropan-2-yl)pyrimidine-5-sulfonamide] | 205 to 207 °C | < 500 nM |
| C[C@H](NS(=O)(=O)c1cnc(-c2c(C#N)c3ccc(OC(F)F)cc3n2C2CCC2)nc1)C1CC1 [compound 130, 2-[3-cyano-1-cyclobutyl-6-(difluoromethoxy)-1H-indol-2-yl]-N-[(1S)-1-cyclopropylethyl]pyrimidine-5-sulfonamide] | 172 to 174 °C | < 500 nM |
